# Source: ChEMBL document CHEMBL1201862, “PubChem BioAssay data set” (2004)
#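 Following 48 hours of exposure in 96-well plates, responses at five concentrations were used to interpolate endpoints linearly. At the GI50, growth is halved.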 Activity calls are given as the source filed them. No stated cut-off is given here; in the data, active = GI50 up to about 1.1 µM and inactive = higher.
# What was measured:
# Assay in all cases: DTP human tumour cell line panel, 48 h
# SK-OV-3 = test system: SK-OV-3
# SK-MEL-28 = test system: SK-MEL-28
# OVCAR-8 = test system: OVCAR-8
# NCI/ADR-RES = test system: NCI/ADR-RES
# MDA-MB-435 = test system: MDA-MB-435
# OVCAR-3 = test system: OVCAR-3
# SK-MEL-2 = test system: SK-MEL-2
# HOP-62 = test system: HOP-62
# CCRF-CEM = test system: CCRF-CEM
# HT-29 = test system: HT-29
# SK-MEL-5 = test system: SK-MEL-5
# UACC-257 = test system: UACC-257
# U-251 = test system: U-251
# A549 = test system: A549
# UACC-62 = test system: UACC-62
# SNB-75 = test system: SNB-75
# LOX IMVI = test system: LOX IMVI
# SR = test system: SR
# T47D = test system: T47D
# DMS-114 = test system: DMS-114
Compound,GI50 (SK-OV-3),GI50 (SK-MEL-28),GI50 (OVCAR-8),GI50 (NCI/ADR-RES),GI50 (MDA-MB-435),GI50 (OVCAR-3),GI50 (SK-MEL-2),GI50 (HOP-62),GI50 (CCRF-CEM),GI50 (HT-29),GI50 (SK-MEL-5),GI50 (UACC-257),GI50 (U-251),GI50 (A549),GI50 (UACC-62),GI50 (SNB-75),GI50 (LOX IMVI),GI50 (SR),GI50 (T47D),GI50 (DMS-114)
Cc1cc(NC[C@H](O)[C@H](O)[C@H](O)CO)c(Sc2cc(=O)[nH]c(=O)[nH]2)cc1C,> 62.5 µM (inactive),> 62.5 µM (inactive),> 62.5 µM (inactive),> 62.5 µM (inactive),> 62.5 µM (inactive),> 62.5 µM (inactive),> 62.5 µM (inactive),> 62.5 µM (inactive),> 62.5 µM (inactive),> 62.5 µM (inactive),> 62.5 µM (inactive),> 62.5 µM (inactive),> 62.5 µM (inactive),> 62.5 µM (inactive),> 62.5 µM (inactive),> 62.5 µM (inactive),> 62.5 µM (inactive),> 62.5 µM (inactive),> 62.5 µM (inactive),
CS/C(=N/C(=O)c1ccccc1)SCCS/C(=N\C(=O)c1ccccc1)SC,,> 100 µM (inactive),> 100 µM (inactive),,,68.5 µM (inactive),> 100 µM (inactive),62.2 µM (inactive),> 100 µM (inactive),> 100 µM (inactive),> 100 µM (inactive),> 100 µM (inactive),> 100 µM (inactive),> 100 µM (inactive),> 100 µM (inactive),33.8 µM (inactive),> 100 µM (inactive),,,90.4 µM (inactive)
COc1cc(/C=N/N=C2NCCCN2)ccc1O,> 100 µM (inactive),> 100 µM (inactive),> 100 µM (inactive),> 100 µM (inactive),> 100 µM (inactive),> 100 µM (inactive),> 100 µM (inactive),> 100 µM (inactive),> 100 µM (inactive),> 100 µM (inactive),> 100 µM (inactive),> 100 µM (inactive),> 100 µM (inactive),> 100 µM (inactive),> 100 µM (inactive),30.3 µM (inactive),> 100 µM (inactive),> 100 µM (inactive),> 100 µM (inactive),
CC1(C)N/C(=C\[N+](=O)[O-])C(C)(C)N1O,> 10 µM (inactive),> 10 µM (inactive),> 10 µM (inactive),> 10 µM (inactive),> 10 µM (inactive),> 10 µM (inactive),> 10 µM (inactive),> 10 µM (inactive),> 10 µM (inactive),> 10 µM (inactive),> 10 µM (inactive),> 10 µM (inactive),> 10 µM (inactive),> 10 µM (inactive),> 10 µM (inactive),> 10 µM (inactive),> 10 µM (inactive),> 10 µM (inactive),> 10 µM (inactive),
Nc1nc(Cl)cc(NCC2(O)CCCC2)n1,> 100 µM (inactive),> 100 µM (inactive),> 100 µM (inactive),> 100 µM (inactive),> 100 µM (inactive),> 100 µM (inactive),> 100 µM (inactive),> 100 µM (inactive),> 100 µM (inactive),> 100 µM (inactive),> 100 µM (inactive),> 100 µM (inactive),> 100 µM (inactive),> 100 µM (inactive),> 100 µM (inactive),> 100 µM (inactive),> 100 µM (inactive),> 100 µM (inactive),> 100 µM (inactive),
C=C1C(=O)OC2/C=C(\C)CC/C=C(/C)CC(OC(=O)/C(=C/CO)CO)C12 (stereo unspecified),> 100 µM (inactive),28.4 µM (inactive),32.4 µM (inactive),32.6 µM (inactive),27.8 µM (inactive),25.2 µM (inactive),25 µM (inactive),> 100 µM (inactive),6.43 µM (inactive),27.2 µM (inactive),17.3 µM (inactive),16.4 µM (inactive),20.9 µM (inactive),66.2 µM (inactive),16.8 µM (inactive),45.4 µM (inactive),23.4 µM (inactive),28.6 µM (inactive),> 10 µM (inactive),
Cc1sc2ncnc(NCCc3ccccc3)c2c1C,22.6 µM (inactive),17.8 µM (inactive),11.8 µM (inactive),6.22 µM (inactive),13.7 µM (inactive),14.2 µM (inactive),14.8 µM (inactive),12.8 µM (inactive),13 µM (inactive),14.6 µM (inactive),1.33 µM (inactive),1.04 µM (active),11.6 µM (inactive),14.7 µM (inactive),11.9 µM (inactive),16.4 µM (inactive),4.82 µM (inactive),0.579 µM (active),2.29 µM (inactive),
Cc1cc2nc3c(C)c4ccccc4c(C)n3c2cc1C,7.06 µM (inactive),3.27 µM (inactive),1.73 µM (inactive),1.51 µM (inactive),3.02 µM (inactive),1.95 µM (inactive),3.66 µM (inactive),2.19 µM (inactive),3.84 µM (inactive),2.2 µM (inactive),2.26 µM (inactive),3.36 µM (inactive),3.33 µM (inactive),3.9 µM (inactive),4.14 µM (inactive),4.97 µM (inactive),0.857 µM (active),2.96 µM (inactive),> 10 µM (inactive),
CC(CC(=O)O)C(C(=O)O)C(=O)O (stereo unspecified),> 100 µM (inactive),> 100 µM (inactive),> 100 µM (inactive),> 100 µM (inactive),> 100 µM (inactive),> 100 µM (inactive),> 100 µM (inactive),> 100 µM (inactive),> 100 µM (inactive),> 100 µM (inactive),> 100 µM (inactive),> 100 µM (inactive),> 100 µM (inactive),> 100 µM (inactive),> 100 µM (inactive),> 100 µM (inactive),> 100 µM (inactive),> 100 µM (inactive),> 100 µM (inactive),
CCCCCCNC(=O)CCC(NC(=O)c1ccc(N(C)Cc2cnc3nc(N)nc(N)c3n2)cc1)C(=O)NCCCCCC (stereo unspecified),17.7 µM (inactive),> 100 µM (inactive),> 100 µM (inactive),> 100 µM (inactive),> 100 µM (inactive),> 100 µM (inactive),> 100 µM (inactive),> 100 µM (inactive),> 100 µM (inactive),88.7 µM (inactive),7.41 µM (inactive),37.1 µM (inactive),> 100 µM (inactive),> 100 µM (inactive),2.68 µM (inactive),> 100 µM (inactive),12.4 µM (inactive),> 100 µM (inactive),> 100 µM (inactive),
CC(=O)CC(=O)Nc1ccc2ccccc2c1,> 100 µM (inactive),> 100 µM (inactive),> 100 µM (inactive),67.3 µM (inactive),67.9 µM (inactive),34.6 µM (inactive),> 100 µM (inactive),> 100 µM (inactive),36.8 µM (inactive),> 100 µM (inactive),72.4 µM (inactive),51.9 µM (inactive),> 100 µM (inactive),> 100 µM (inactive),> 100 µM (inactive),> 100 µM (inactive),> 100 µM (inactive),51.5 µM (inactive),40.2 µM (inactive),
O=C1C=CC2(O[C@@H](Cc3ccccc3)[C@H](Cc3ccccc3)O2)C(SC(=O)c2ccccc2)C1 (stereo partly specified),2.75 µM (inactive),1.81 µM (inactive),0.209 µM (active),1.07 µM (active),2.11 µM (inactive),0.594 µM (active),1.66 µM (inactive),1.11 µM (active),0.208 µM (active),1.64 µM (inactive),1.66 µM (inactive),1.18 µM (inactive),1.3 µM (inactive),4.22 µM (inactive),2.24 µM (inactive),1.91 µM (inactive),0.38 µM (active),0.138 µM (active),0.764 µM (active),
CC[C@]1(c2ccc3c(c2)OCO3)C=[N+]([O-])O[C@H](OC2CCCC2(c2ccccc2)c2ccccc2)[C@@H]1OC(C)=O (stereo partly specified),3.01 µM (inactive),2.12 µM (inactive),1.95 µM (inactive),1.92 µM (inactive),1.8 µM (inactive),1.81 µM (inactive),2.38 µM (inactive),2.08 µM (inactive),2.86 µM (inactive),1.68 µM (inactive),1.56 µM (inactive),2.58 µM (inactive),3.62 µM (inactive),2.63 µM (inactive),1.95 µM (inactive),2.16 µM (inactive),2.09 µM (inactive),2.22 µM (inactive),2.09 µM (inactive),
C#CCn1c2c(c3ccccc3c1=O)C(=O)c1ccccc1-2,27.4 µM (inactive),26.6 µM (inactive),19.6 µM (inactive),21.5 µM (inactive),67.3 µM (inactive),14.7 µM (inactive),29.9 µM (inactive),11.9 µM (inactive),> 100 µM (inactive),10.7 µM (inactive),2.37 µM (inactive),32.3 µM (inactive),15.2 µM (inactive),13.6 µM (inactive),21.4 µM (inactive),13.4 µM (inactive),18.2 µM (inactive),4.49 µM (inactive),15.8 µM (inactive),
CCOC(=O)C(=O)/C(=C/n1c(=S)[nH]c2ccc([N+](=O)[O-])cc21)C(=O)OCC,> 100 µM (inactive),> 100 µM (inactive),> 100 µM (inactive),> 100 µM (inactive),> 100 µM (inactive),> 100 µM (inactive),> 100 µM (inactive),> 100 µM (inactive),> 100 µM (inactive),> 100 µM (inactive),65.5 µM (inactive),> 100 µM (inactive),> 100 µM (inactive),> 100 µM (inactive),> 100 µM (inactive),90.4 µM (inactive),> 100 µM (inactive),> 100 µM (inactive),> 100 µM (inactive),
